Reference: US20070275999A1, “PHARMACEUTICAL COMPOSITIONS CONTAINING A HYPOGLYCEMIC AGENT(S) FOR IMPROVING OR TREATING IMPAIRED GLUCOSE TOLERANCE, BORDERLINE DIABETES, INSULIN RESISTANCE OR HYPERINSULINEMIA” (Ajinomoto Co., Inc., priority 2005, published 2007)

Experiments:
[1] = system: Zucker Fatty (ZF) rats; test: Insulin tolerance test (ITT); assay type: in vivo, rat
Procedure: On another day of the fourth week, the insulin tolerance test (ITT) was conducted in order to examine the degree of improvement of the general insulin resistance. Commercially available insulin preparation (NOVORIN R, NOVO) diluted to 0.5 U/mL with a normal saline solution was subcutaneously injected to the back of ZF rats fasted overnight to become 0.5 U/kg. Their blood was collected through the caudal vein 15, 30, 60, 120 and 180 minutes after the administration to measure their blood glucose. The blood glucose was measured in accordance with the routine method.
In response to the above results, ITT was conducted in order to more precisely quantify the degree of improvement of the general insulin sensitivity. […] However, the blood glucose lowered by about 50% of the level before the administration in 60 minutes after the administration of insulin due to the treatment by mitiglinide.

[2] = system: Zucker Fatty (ZF) rats; test: Circadian changes of blood glucose and insulin under restricted feeding after four weeks of treatment; assay type: in vivo, rat
Description: The effectiveness of mitiglinide was examined by using Zucker Fatty (ZF) rats, which have the feature of obesity and insulin resistance. It is known that though ZF rats have hyperinsulinemia and impaired glucose tolerance, their fasting blood glucose is within a normal range and, therefore, their pathology is similar to IGT in human being (Br J Pharmacol 125, 1708-14, 1998).
Male Zucker Fatty rats of 6 weeks old were introduced and acclimatized to the restricted feeding of one hour each (9:00 to 10:00 and 15:00 to 16:00) twice per a day. After acclimatization for one week, the rats were randomly divided into two groups, and drugs were administered to them for four weeks. As the drugs, mitiglinide suspended in 0.5% methylcellulose was forcibly orally administered to one group to become a dose of 3 mg/kg, and only 0.5% methylcellulose solution that is a dose vehicle was forcibly orally administered to the other group just before each meal twice per a day. The circadian changes of their blood glucose and insulin that occurred under the restricted feeding were measured upon starting the administration and in the fourth week after its start. The drugs were not administered on the measurement day, and their blood was collected through the caudal vein before morning feeding (9:00), one hour after the feeding (10:00), two hours after the feeding (11:00), before afternoon feeding (15:00), one hour after the feeding (16:00), and two hours after the feeding (17:00). Then, their blood glucose and insulin were measured in accordance with the routine method.

[3] = feeding 9:00 to 10:00 and 15:00 to 16:00, fourth week, 3 mg/kg
[4] = male ZF rats, 3 mg/kg orally just before each meal twice per day for four weeks, measured in fourth week, no drug on measurement day

Structure (SMILES): O=C(O)[C@H](CC(=O)N1C[C@H]2CCCC[C@H]2C1)Cc1ccccc1 [Mitiglinide, (2S)-2-benzyl-4-[(3aR, 7aS) -octahydro-2H-isoindole-2-yl]-4-oxobutanoic acid]
- Sum of blood glucose ([1]; ITT in fourth week, insulin 0.5 U/kg s.c., ZF rats fasted overnight, blood 15-180 min after insulin): 243 ± 7 mg·h/dL
- Blood glucose lowering relative to the level before the administration of insulin ([1]; ITT, 60 minutes after insulin 0.5 U/kg s.c., FIG. 3): about 50%
- Circadian changes of the blood glucose (FIG. 1) [2, 3]: no change
- Insulin level in the blood plasma (FIG. 2) [2, 3]: decrease of the insulin level was clearly seen
- Sum of the circadian changes of blood glucose [2, 4]: 1050 ± 20 mg·h/dL
- Sum of the circadian changes of insulin [2, 4]: 224 ± 11 ng·h/mL
